Laboratory results: patent US20090305266A1, “TEST FOR OVARIAN CANCER BY DETECTING ABNORMALITY IN FANCD2 PATHWAY” (priority 2006, published 2009)

Key:
Type in all cases: cell-based, human
[1] = system: ovarian surface epithelium (OSE) cells; experiment: MMC/DEB-induced chromosomal breakage and radial formation in primary ovarian epithelial cell cultures; details: 40 ng/ml MMC or 200 ng/ml DEB, 48 hours
Procedure: (§1) The ovarian cells were scraped from the ovarian surface and enzymatically disaggregated with Collagenase I (GIBCO-Invitrogen, Grand Island, N.Y.) for 4 hours. The cells were washed in RPMI 1640 medium (GIBCO-Invitrogen) and plated in 25 cm^2 flasks coated with collagen in RPMI 1640 supplemented with 20% FCS (Hyclone, Logan, Utah), 10 μg/ml insulin (Sigma, St. Louis, Mo.) and 10 ng/ml EGF (R&D Systems, Minneapolis, Minn.). Studies were performed on primary cells and immortalized cells. Ovarian cells were immortalized by transduction with a retrovirus expressing SV40 large T-antigen obtained from cell line Ψ-2/U195 (Saito et al., Mutat. Res. 294:255-62, 1993; Williams et al., Mol. Cell Bio. 8:3864-71, 1988). SV40-transformed ovarian epithelial cells were transduced with pMMP retroviral vectors containing full-length FANCD2 cDNA produced from the AM12/RVD2 cell line (Naf et al., Mol. Cell Biol. 18:5952-60, 1998; Kuang et al., Blood 96:1625-32, 2000).
(§2) These cultures were then harvested after a 2 hour exposure to 0.25 μg/ml Colcemid (Sigma). Following a 10 minute treatment with hypotonic solution (0.075 M KCl, 5% fetal calf serum) the cells were fixed with a 3:1 mixture of methanol:acetic acid. Slides were stained with Wright's stain, and breaks and radial formation was assessed by counting the number of breaks and radials in a representative number of cells.

[2] = system: peripheral blood mono-lymphocytes (PBML); experiment: MMC/DEB-induced chromosomal breakage and radial formation in PHA-stimulated peripheral blood lymphocytes;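 note: 40 ng/mL MMC and 200 ng/mL DEB for 48 hours at 37 °C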
Procedure: Peripheral blood was obtained from all subjects.
as §2

[3] = system: SV40-transformed OV-HR2 ovarian epithelial cells; experiment: MMC/DEB-induced radial formation, SV40-transformed OV-HR2 cells with and without FANCD2 complementation (FIG. 4B); details: 40 ng/ml MMC or 200 ng/mL DEB, 48 hours, 50 metaphases
Procedure: as §1, §2

[4] = system: SV40-transformed OV-CA4 ovarian epithelial cells; experiment: MMC/DEB-induced radial formation, SV40-transformed OV-CA4 cells with and without FANCD2 complementation (FIG. 4B); details: 40 ng/ml MMC or 200 ng/mL DEB, 48 hours, 50 metaphases
Procedure: as §1, §2

[5] = lymphocytes of case OV-CA 1 (carcinoma)
[6] = lymphocytes of case OV-CA 2 (carcinoma)
[7] = lymphocytes of case OV-CA 3 (carcinoma)
[8] = lymphocytes of case OV-CA 4 (carcinoma)
[9] = lymphocytes of case OV-CA 5 (carcinoma)
[10] = lymphocytes of case OV-CA 6 (carcinoma)
[11] = lymphocytes of case OV-CA 7 (carcinoma)
[12] = lymphocytes of case OV-CA 8 (carcinoma)
[13] = lymphocytes of case OV-HR 1 (high-risk)
[14] = lymphocytes of case OV-HR 2 (high-risk)
[15] = lymphocytes of case OV-HR 3 (high-risk)
[16] = lymphocytes of case OV-HR 4 L (high-risk)
[17] = lymphocytes of case OV-HR 5 L (high-risk)
[18] = lymphocytes of case OV-HR 5 R (high-risk)
[19] = lymphocytes of case OV-NL 3 (normal)
[20] = lymphocytes of case OV-NL 9 L (normal)
[21] = lymphocytes of case OV-NL 9 R (normal)
[22] = OV-HR2, FANCD2-complemented (retroviral FANCD2 cDNA)
[23] = OV-HR2, FANCD2-deficient (before FANCD2 expression)
[24] = OV-CA4, FANCD2-complemented (retroviral FANCD2 cDNA)
[25] = OV-CA4, FANCD2-deficient (before FANCD2 expression)

C1OC1C1CO1 (stereo not shown) [DEB, Diepoxybutane]
Radials (%) OSE MMC/DEB ([1]; case OV-CA 1 (carcinoma)): 16% | Radials (%) OSE MMC/DEB ([1]; case OV-CA 2 (carcinoma)): 10% | Radials (%) OSE MMC/DEB ([1]; case OV-CA 3 (carcinoma)): 14% | Radials (%) OSE MMC/DEB ([1]; case OV-CA 4 (carcinoma)): 48% | Radials (%) OSE MMC/DEB ([1]; case OV-CA 5 (carcinoma)): 2% | Radials (%) OSE MMC/DEB ([1]; case OV-HR 1 (high-risk)): 14% | Radials (%) OSE MMC/DEB ([1]; case OV-HR 2 (high-risk)): 64% | Radials (%) OSE MMC/DEB ([1]; case OV-HR 3 (high-risk)): 55% | Radials (%) OSE MMC/DEB ([1]; case OV-HR 4 L (high-risk)): 50% | Radials (%) OSE MMC/DEB ([1]; case OV-HR 5 L (high-risk)): 20% | Radials (%) OSE MMC/DEB ([1]; case OV-HR 5 R (high-risk)): 12% | Radials (%) OSE MMC/DEB ([1]; case OV-NL 1 (normal)): 0/0% | Radials (%) OSE MMC/DEB ([1]; case OV-NL 2 (normal)): 0/0% | Radials (%) OSE MMC/DEB ([1]; case OV-NL 3 (normal)): 0% | Radials (%) OSE MMC/DEB ([1]; case OV-NL 4 (normal)): 1% | Radials (%) OSE MMC/DEB ([1]; case OV-NL 5 (normal)): 1/1% | Radials (%) OSE MMC/DEB ([1]; case OV-NL 6 L (normal)): 0/0% | Radials (%) OSE MMC/DEB ([1]; case OV-NL 6 R (normal)): 0/0% | Radials (%) OSE MMC/DEB ([1]; case OV-NL 7 (normal)): 2% | Radials (%) OSE MMC/DEB ([1]; case OV-NL 8 (normal)): 3/3% | Radials (%) OSE MMC/DEB ([1]; case OV-NL 9 L (normal)): 0/0% | Radials (%) OSE MMC/DEB ([1]; case OV-NL 9 R (normal)): 0/0% | Radials (%) PBML MMC/DEB [2, 5]: 0% | Radials (%) PBML MMC/DEB [2, 6]: 0% | Radials (%) PBML MMC/DEB [2, 7]: 1/1% | Radials (%) PBML MMC/DEB [2, 8]: 2% | Radials (%) PBML MMC/DEB [2, 9]: 0% | Radials (%) PBML MMC/DEB [2, 10]: 1/1% | Radials (%) PBML MMC/DEB [2, 11]: 1% | Radials (%) PBML MMC/DEB [2, 12]: 1% | Radials (%) PBML MMC/DEB [2, 13]: 0/0% | Radials (%) PBML MMC/DEB [2, 14]: 0/0% | Radials (%) PBML MMC/DEB [2, 15]: 0% | Radials (%) PBML MMC/DEB [2, 16]: 0/0% | Radials (%) PBML MMC/DEB [2, 17]: 1% | Radials (%) PBML MMC/DEB [2, 18]: 0/0% | Radials (%) PBML MMC/DEB [2, 19]: 0/0% | Radials (%) PBML MMC/DEB [2, 20]: 0/0% | Radials (%) PBML MMC/DEB [2, 21]: 0/0% | fraction of MMC- and DEB-exposed cells with radial forms [3, 22]: 10% | fraction of MMC- and DEB-exposed cells with radial forms [3, 23]: 30% | fraction of MMC- and DEB-exposed cells with radial forms [4, 24]: 20% | fraction of MMC- and DEB-exposed cells with radial forms [4, 25]: 48%

CO[C@@]12[C@H](COC(N)=O)C3=C(C(=O)C(C)=C(N)C3=O)N1C[C@@H]1N[C@@H]12 [MMC, Mitomycin C]
Radials (%) OSE MMC/DEB ([1]; case OV-CA 1 (carcinoma)): 14% | Radials (%) OSE MMC/DEB ([1]; case OV-CA 2 (carcinoma)): 12% | Radials (%) OSE MMC/DEB ([1]; case OV-CA 3 (carcinoma)): 16% | Radials (%) OSE MMC/DEB ([1]; case OV-CA 4 (carcinoma)): 70% | Radials (%) OSE MMC/DEB ([1]; case OV-CA 5 (carcinoma)): 12% | Radials (%) OSE MMC/DEB ([1]; case OV-CA 6 (carcinoma)): 66/N.D. % | Radials (%) OSE MMC/DEB ([1]; case OV-CA 7 (carcinoma)): 0/N.D. % | Radials (%) OSE MMC/DEB ([1]; case OV-CA 8 (carcinoma)): 33/N.D. % | Radials (%) OSE MMC/DEB ([1]; case OV-HR 1 (high-risk)): 10% | Radials (%) OSE MMC/DEB ([1]; case OV-HR 2 (high-risk)): 50% | Radials (%) OSE MMC/DEB ([1]; case OV-HR 3 (high-risk)): 64% | Radials (%) OSE MMC/DEB ([1]; case OV-HR 4 L (high-risk)): 66% | Radials (%) OSE MMC/DEB ([1]; case OV-HR 5 L (high-risk)): 47% | Radials (%) OSE MMC/DEB ([1]; case OV-HR 5 R (high-risk)): 30% | Radials (%) OSE MMC/DEB ([1]; case OV-NL 1 (normal)): 0/0% | Radials (%) OSE MMC/DEB ([1]; case OV-NL 2 (normal)): 0/0% | Radials (%) OSE MMC/DEB ([1]; case OV-NL 3 (normal)): 2% | Radials (%) OSE MMC/DEB ([1]; case OV-NL 4 (normal)): 4% | Radials (%) OSE MMC/DEB ([1]; case OV-NL 5 (normal)): 1/1% | Radials (%) OSE MMC/DEB ([1]; case OV-NL 6 L (normal)): 0/0% | Radials (%) OSE MMC/DEB ([1]; case OV-NL 6 R (normal)): 0/0% | Radials (%) OSE MMC/DEB ([1]; case OV-NL 7 (normal)): 1% | Radials (%) OSE MMC/DEB ([1]; case OV-NL 8 (normal)): 3/3% | Radials (%) OSE MMC/DEB ([1]; case OV-NL 9 L (normal)): 0/0% | Radials (%) OSE MMC/DEB ([1]; case OV-NL 9 R (normal)): 0/0% | Radials (%) PBML MMC/DEB [2, 5]: 2% | Radials (%) PBML MMC/DEB [2, 6]: 1% | Radials (%) PBML MMC/DEB [2, 7]: 1/1% | Radials (%) PBML MMC/DEB [2, 8]: 4% | Radials (%) PBML MMC/DEB [2, 9]: 2% | Radials (%) PBML MMC/DEB [2, 10]: 1/1% | Radials (%) PBML MMC/DEB [2, 11]: 0% | Radials (%) PBML MMC/DEB [2, 12]: 3% | Radials (%) PBML MMC/DEB [2, 13]: 0/0% | Radials (%) PBML MMC/DEB [2, 14]: 0/0% | Radials (%) PBML MMC/DEB [2, 15]: 1% | Radials (%) PBML MMC/DEB [2, 16]: 0/0% | Radials (%) PBML MMC/DEB [2, 17]: 0% | Radials (%) PBML MMC/DEB [2, 18]: 0/0% | Radials (%) PBML MMC/DEB [2, 19]: 0/0% | Radials (%) PBML MMC/DEB ([2]; lymphocytes of case OV-NL 6 L (normal)): 0/N.D. % | Radials (%) PBML MMC/DEB ([2]; lymphocytes of case OV-NL 6 R (normal)): 0/N.D. % | Radials (%) PBML MMC/DEB [2, 20]: 0/0% | Radials (%) PBML MMC/DEB [2, 21]: 0/0% | fraction of MMC- and DEB-exposed cells with radial forms [3, 22]: 32% | fraction of MMC- and DEB-exposed cells with radial forms [3, 23]: 60% | fraction of MMC- and DEB-exposed cells with radial forms [4, 24]: 56% | fraction of MMC- and DEB-exposed cells with radial forms [4, 25]: 70%
